Patent US8901316B2, “Process for preparing aminoadamantyl carbamate derivatives” (Shionogi & Co., Ltd., priority 2010, dated 2014)

Assay: stability to temperature and humidity changes (storage/handling)
Format: physicochemical
Conditions: solid; storage without desiccant agent or without being sealed

Substance: aminoadamantane carbamate hydrochloride dihydrate [III-2]
- stability to temperature and humidity changes: stable to temperature and humidity changes
